Reference: EP2342182B1 (H. Lundbeck A/S, priority 2008, dated 2010)

How the values were obtained:
human NK3 receptor [1] = biological target: T1, human NK3 receptor (Homo sapiens, UniProt P29371); experiment: NK3 receptor binding assay (SPA-based competition binding with 125I-NKB); conditions: read-out: Affinity (Ki/nM); further: competition with app 0.02 nM 125I-NKB
T1 construct: expressed in transfected cells; membranes prepared from them
T1 sequence (P29371 1-465): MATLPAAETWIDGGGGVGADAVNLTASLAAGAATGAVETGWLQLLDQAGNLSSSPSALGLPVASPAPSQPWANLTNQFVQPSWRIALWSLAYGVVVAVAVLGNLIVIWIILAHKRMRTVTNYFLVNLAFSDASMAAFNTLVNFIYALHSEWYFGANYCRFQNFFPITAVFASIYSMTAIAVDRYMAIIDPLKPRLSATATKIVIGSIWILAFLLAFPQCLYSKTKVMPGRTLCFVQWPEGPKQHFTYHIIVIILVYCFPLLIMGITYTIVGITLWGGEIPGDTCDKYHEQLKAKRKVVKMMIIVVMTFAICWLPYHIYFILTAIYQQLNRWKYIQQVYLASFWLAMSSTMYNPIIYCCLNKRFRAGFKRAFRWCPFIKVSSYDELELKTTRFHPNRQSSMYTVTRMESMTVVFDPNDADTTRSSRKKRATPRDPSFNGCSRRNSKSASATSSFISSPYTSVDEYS
Experimental: Example 12 NK3 receptor binding assay
Membranepreparation: BHK cells stably expressing the human NK3 receptor were seeded in harvesting plates in Dulbeccos MEM containing GlutaMax (862 mg/l), 1mM sodium pyruvate, 10% fetal calf serum, 1% Pen/Strep, 1 mg/ml G418 and were grown at 34 °C in a humidified atmosphere containing 10% CO2. To increase receptor expression, 10 µM trichotatin A was added to the media 24 hours before harvest of the cells at a confluency of app 90%. Prior to the harvesting, the cells were washed twice with PBS without Mg^2+ og Ca^2+ and subsequently scrapped of in 10 ml PBS pr harvesting plate. The cells suspension were centrifuged at 1500xG in three minutes before resuspension in 15 mM Tris-HCl pH 7,5 buffer containing 2 mM MgCl2; 0,3 mM EDTA and 1 mM EGTA (buffer A). The cell suspention was homogenised and subsequently centrifuged at 40000xG in 30 minutes. The membrane-pellet was resuspended in buffer A containing 250 mM sucrose, alliquoted and stored at ― 80 °C.
Affinity assay description: The assay was performed as a SPA-based competition-binding assay in a 50 mM Tris pH 7.4 assay buffer containing 120 mM NaCl, 3 mM MnCl2, 40 µg/ml bacitracin, 2 µg/ml Chymostatin, 1 µg/ml Phosphoramidon and 4 µg/ml Leupeptin. […] The assay plate was subsequently under agitation incubated for 90 min at RT. The plate was centrifugated 10 minutes at 500xG and counted in a topcounter 5 minuttes pr well.
The total binding, which comprised less than 5 % of added radioligand, was defined using assay buffer whereas the non-specific binding was defined in the presence of 1 µM osanetant. The non-specific binding constituted app 5 % of the total binding.

human NK3 receptor [2] = biological target: T1, human NK3 receptor; experiment: NK3 receptor efficacy and potency assay (FLIPR Calcium 4); assay type: cell-based; conditions: read-out: Potency (cIC50/nM)
Experimental: Example 13 NK3 receptor efficacy and potency assay
BHK cells stably expressing the human NK3 receptor were seeded in 100 µl media in black walled clear-base 96-wells plates (Costar) aiming at a confluency of 95-100% at the day of assay. The assay was performed according to the FLIPR Calcium 4 Assay kit (Molecular Devices). At the day of the assay, the media was removed and the cells were washed once with the HBSS buffer (Hanks BSS buffer, pH 7,4 containing 20 mM Hepes) before 100 µl of a solution of the calcium assay reagent dissolved in the HBSS buffer containing 2,5 mM probinicid was added to the cells. The plates were incubated for 60 min at 34°C, 10% CO2 before use in the FLIPR for examination of fluorescence.
For efficacy and potency evaluation of compounds, these were diluted in HBSS buffer prior to test. For test of agonist activity, 25 µl of the diluted compound solution was added and the plate was analyzed for 5 minutes in the FLIPR. For test of antagonist activity, the plate was incubated for another 45 minutes before addition of 25 µl of the EC85 concentration ofNKB (app. 4 nM) as described above. The plates were subsequently analyzed for 5 minutes before the assay was terminated. The maximal increase in fluorescence over background following each ligand addition was determined.

Ki (human NK3 receptor [1]) [nM] | IC50 (human NK3 receptor [2]) [nM] | Compound
310 | 570 | CC[C@H](NC(=O)c1c(C)n(C2CCCC2)c(=O)c2ccccc12)c1ccccc1 [Example 1a, 2-Cyclopentyl-3-methyl-1-oxo-1,2-dihydro-isoquinoline-4-carboxylic acid ((S)-1-phenylpropyl)-amide]
200 | 440 | CC[C@H](NC(=O)c1c(C)n(CCSC)c(=O)c2ccccc12)c1ccccc1 [Example 1q, 3-Methyl-2-(2-methylsulfanyl-ethyl)-1-oxo-1,2-dihydro-isoquinoline-4-carboxylic acid ((S)-1-phenyl-propyl)-amide]
46 | 230 | CC[C@H](NC(=O)c1c(C)n(NCC(C)C)c(=O)c2ccccc12)c1ccccc1 [Example 2d, 2-Isobutylamino-3-methyl-1-oxo-1,2-dihydro-isoquinoline-4-carboxylic acid ((S)-1-phenyl-propyl)-amide]
180 | 580 | CC[C@H](NC(=O)c1c(C)n(NCC(C)(C)C)c(=O)c2ccccc12)c1ccccc1 [Example 2e, 2-(2,2-Dimethyl-propylamino)-3-methyl-1-oxo-1,2-dihydro-isoquinoline-4-carboxylic acid ((S)-1-phenyl-propyl)-amide]
23 | – | Cc1c(C(=O)N[C@H](c2ccccc2)C2CC2)c2cccc(F)c2c(=O)n1NCC(C)C [Example 2j, 8-Fluoro-2-isobutylamino-3-methyl-1-oxo-1,2-dihydro-isoquinoline-4-carboxylic acid ((S)-cyclopropyl-phenyl-methyl)-amide]
12 | 27 | CCNn1c(C)c(C(=O)N[C@H](c2cccc(F)c2)C2CC2)c2cccc(F)c2c1=O [Example 2p, 2-Ethylamino-8-fluoro-3-methyl-1-oxo-1,2-dihydro-isoquinoline-4-carboxylic acid [(S)-cyclopropyl-(3-fluoro-phenyl)-methyl]-amide]
7.4 | – | CCCNn1c(C)c(C(=O)N[C@H](c2cccc(F)c2)C2CC2)c2cccc(F)c2c1=O [Example 2q, 8-Fluoro-3-methyl-1-oxo-2-propylamino-1,2-dihydro-isoquinoline-4-carboxylic acid [(S)-cyclopropyl-(3-fluoro-phenyl)-methyl]-amide]
6.8 | – | CCNn1c(CN2CCCC2=O)c(C(=O)N[C@H](c2cccc(F)c2)C2CC2)c2cccc(F)c2c1=O [Example 2r, 2-Ethylamino-8-fluoro-1-oxo-3-(2-oxo-pyrrolidin-1-ylmethyl)-1,2-dihydro-isoquinoline-4-carboxylic acid [(S)-cyclopropyl-(3-fluoro-phenyl)-methyl]-amide]
76 | 230 | COCCn1c(C)c(C(=O)N[C@H](c2cccc(F)c2)C2CC2)c2cccc(F)c2c1=O [Example 4f, 8-Fluoro-2-(2-methoxy-ethyl)-3-methyl-1-oxo-1,2-dihydro-isoquinoline-4-carboxylic acid [(S)-cyclopropyl-(3-fluoro-phenyl)-methyl]-amide]
9.3 | 10 | O=C(N[C@H](c1cccc(F)c1)C1CC1)c1c(CN2CCCC2=O)n(CCC(F)(F)F)c(=O)c2c(F)cccc12 [Example 4l, 8-Fluoro-1-oxo-3-(2-oxo-pyrrolidin-1-ylmethyl)-2-(3,3,3-trifluoro-propyl)-1,2-dihydro-isoquinoline-4-carboxylic acid [(S)-cyclopropyl-(3-fluoro-phenyl)-methyl]-amide]
160 | 380 | Cc1c(C(=O)N[C@H](c2cccc(F)c2)C2CCC2)c2cccc(F)c2c(=O)n1CCO [Example 4p, 8-Fluoro-2-(2-hydroxy-ethyl)-3-methyl-1-oxo-1,2-dihydro-isoquinoline-4-carboxylic acid [(S)-cyclobutyl-(3-fluoro-phenyl)-methyl]-amide]
– | 390 | Cc1c(C(=O)NC(c2cccc(F)c2)C2CCC2)c2cccc(F)c2c(=O)n1C1CCOC1 [Example 4r, 8-Fluoro-3-methyl-1-oxo-2-(S)-tetrahydro-furan-3-yl-1,2-dihydro-isoquinoline-4-carboxylic acid [(S)-cyclobutyl-(3-fluoro-phenyl)-methyl]-amide]
68 | 180 | CCOn1c(C)c(C(=O)N[C@H](c2cccc(F)c2)C2CCC2)c2cccc(F)c2c1=O [Example 4t, 2-Ethoxy-8-fluoro-3-methyl-1-oxo-1,2-dihydro-isoquinoline-4-carboxylic acid [(S)-cyclobutyl-(3-fluoro-phenyl)-methyl]-amide]
25 | 16 | Cc1c(C(=O)N[C@H](c2cccc(F)c2)C2CCC2)c2cccc(F)c2c(=O)n1C[C@H]1CCCN1 [Example 5d, 8-Fluoro-3-methyl-1-oxo-2-(R)-1pyrrolidin-2-ylmethyl-1,2-dihydro-isoquinoline-4-carboxylic acid [(S)-cyclobutyl-(3-fluoro-phenyl)-methyl]-amide]
13 | 7 | CCCn1c(CN2CCNCC2)c(C(=O)N[C@H](c2cccc(F)c2)C2CC2)c2cccc(F)c2c1=O [Example 6a, 8-Fluoro-1-oxo-3-piperazin-1-ylmethyl-2-propyl-1,2-dihydro-isoquinoline-4-carboxylic acid [(S)-cyclopropyl-(3-fluoro-phenyl)-methyl]-amide]
6.6 | 18 | CCCn1c(CN2CCNCC2)c(C(=O)N[C@H](c2cccc(F)c2)C2CCC2)c2cccc(F)c2c1=O [Example 6b, 8-Fluoro-1-oxo-3-piperazin-1-ylmethyl-2-propyl-1,2-dhydro-isoquinoline-4-carboxylic acid [(S)-cyclobutyl-(3-fluoro-phenyl)-methyl]-amide]
9.8 | 21 | CCCn1c(CN2CCCC2=O)c(C(=O)N[C@H](c2cccc(F)c2)C2CC2)c2cccc(F)c2c1=O [Example 6e, 8-Fluoro-1-oxo-3-(2-oxo-pyrrolidin-1-ylmethyl)-2-propyl-1,2-dihydro-isoquinoline-4-carboxylic acid [(S)-cyclopropyl-(3-fluoro-phenyl)-methyl]-amide]
78 | 130 | Cc1c(C(=O)N[C@H](c2cccc(F)c2)C2CC2)c2cccc(F)c2c(=O)n1C[C@@H]1CCCN1C [Example 7a, 8-Fluoro-3-methyl-2-((S)-1-methyl-pyrrolidin-2-ylmethyl)-1-oxo-1,2-dihydro-isoquinoline-4-carboxylic acid [(S)-cyclopropyl-(3-fluoro-phenyl)-methyl]-amide]
90 | 660 | Cc1c(C(=O)N[C@H](c2cccc(F)c2)C2CC2)c2cccc(F)c2c(=O)n1[C@@H]1CCN(C)C1 [Example 7i, 8-Fluoro-3-methyl-2-((R)-1-methyl-pyrrolidin-3-yl)-1-oxo-1,2-dihydro-isoquinoline-4-carboxylic acid [(S)-cyclopropyl-(3-fluoro-phenyl)-methyl]-amide]

Compound | Ki (human NK3 receptor [1]) [nM] | IC50 (human NK3 receptor [2]) [nM]
Cc1c(C(=O)N[C@H](c2cccc(F)c2)C2CC2)c2cccc(F)c2c(=O)n1[C@@H]1CCNC1 [Example 5g, 8-Fluoro-3-methyl-1-oxo-2-(R)-1-pyrrolidin-3-yl-1,2-dihydro-isoquinoline-4-carboxylic acid [(S)-cyclopropyl-(3-fluoro-phenyl)-methyl]-amide] | – | 910
